Data on one molecule can be found in patent US10555522B2, “Long term methods of improving disease tolerance in plants” (priority 2016, dated 2020).

The subject of test [1] is Beet Curly Top Virus (BCTV). Kind of test: Evaluation of Beet Curly Top Virus on tomatoes (field trial, seedlings treated before transplantation). In kind it is in vivo. To be noted: tomato var Heinz 8504; seedlings sprayed with 4 gm ai/ha two days before transplant; rated approximately 8 weeks later; P = 0.065. The method, then: In the instant example, symptoms of infection with Beet Curly Top Virus (BCTV) on tomatoes were evaluated. Plants were either treated with a composition comprising 1-MCP or left untreated.
Tomato seedlings (var Heinz 8504) with 4 leaves (approximately 4 inches tall) in seedling trays were either i) sprayed with a treatment of 1-MCP (4 gm ai/ha) or ii) left untreated. Contacting the plants was achieved using a pressurized backpack spraying system containing 1-MCP and water. Two days later, the tomato seedlings were transplanted into the open field near Five Points, Calif. following normal commercial tomato production practices.
Throughout the growing season, normal field production practices were performed, including fertilization, watering, and pest control (e.g., insecticide, fungicide, and herbicide) applications uniformly to the entire trial area. Approximately eight (8) weeks later, when the tomatoes had grown to approximately 2 feet tall, an infestation of Beet Curly Top Virus (BCTV) was noted. Observations were taken on percentage of plants infected with BCTV in treated and untreated plots.

The test system of test [2] is Tomato Yellow Leaf Curl Virus (TYLCV). Briefly: Evaluation of Tomato Yellow Leaf Curl Virus on tomatoes (field trial). To be noted: tomato var Florida 47; seedlings treated with 50 ppm ai by watering can three days before transplant; rated approximately 9 weeks later; P = 0.081. The format is in vivo, Tomato Yellow Leaf Curl Virus (Begomovirus Geminiviridae). As for the experimental part:
In the instant example, symptoms of infection with Tomato Yellow Leaf Curl Virus (TYLCV) on tomatoes were evaluated. Plants were either treated with a composition comprising 1-MCP or left untreated.
Tomato seedlings (var Florida 47) with approximately 4 leaves (approximately 4 inches tall) in seedling trays were either i) sprayed with 1-MCP (50 ppm ai) or ii) left untreated. Contacting the plants was achieved using a watering can containing 1-MCP and water. Three days later, the seedlings were transplanted into the open field near Myakka City, Fla. following normal commercial tomato production practices.
Throughout the growing season, normal field production practices were performed, including fertilization, watering, and pest control (e.g., insecticide, fungicide, and herbicide) applications uniformly to the entire trial area. Approximately 9 weeks later, when the tomatoes had grown to approximately 3 feet tall, an infestation of Tomato Yellow Leaf Curl Virus was observed. In each plot of plants that were treated with 1-MCP, and the corresponding plot of plants that were untreated, counts were made of the number of plants showing symptoms of infection by TYLCV out of the total of 54 plants per plot.

Test [3] concerns Target Spot (Corynespora cassiicola). Briefly: Evaluation of Target Spot infection on tomatoes (field trial). The format is in vivo. The conditions noted are these: tomato var HM 1823; seedlings treated with 50 ppm ai by watering can three days before transplant; rated approximately 9 weeks later; P = 0.003. The method, then:
In the instant example, symptoms of Target Spot […] infection (Corynespora cassiicola) on tomatoes were evaluated. Plants were either treated with a composition comprising 1-MCP or left untreated.
Tomato seedlings (var HM 1823) with approximately 4 leaves (approximately 4 inches tall) in seedling trays were either i) sprayed with 1-MCP (50 ppm ai) or ii) left untreated. Contacting the plants was achieved using a watering can containing 1-MCP and water. Three days later, the seedlings were transplanted into the open field near Myakka City, Fla. following normal commercial tomato production practices.
Throughout the growing season, normal field production practices were performed, including fertilization, watering, and pest control (e.g., insecticide, fungicide, and herbicide) applications uniformly to the entire trial area. Approximately 9 weeks later, when the tomatoes had grown to approximately 3 feet tall, an infestation of Target Spot was observed. In each plot of plants that were treated with 1-MCP, and the corresponding plot of plants that were untreated, counts were made of the number of plants showing symptoms of infection by Target Spot out of the total of 54 plants per plot.

For test [4], the system named is Bacterial Spot (Xanthomonas euvesicatoria and Xanthomonas perforans, Xanthomonas vesicatoria, and Xanthomonas gardneri). Kind of test: Evaluation of Bacterial Spot on tomatoes (field trial). In kind it is in vivo. To be noted: tomato var Charger; seedlings sprayed with 1-40 g ai/ha two days before transplant; rated approximately 3 weeks later; p = 0.04. The method, then:
In the instant example, symptoms of Bacterial Spot bacterial infection (Xanthomonas euvesicatoria and Xanthomonas perforans=[Xanthomonas axonopodis (syn. campestris) pv. vesicatoria], Xanthomonas vesicatoria, and Xanthomonas gardneri) on tomatoes were evaluated. Plants were either treated with a composition comprising 1-MCP or left untreated.
Tomato Seedlings (var Charger) with approximately 4 leaves (approximately 4-5 inches tall) in seedling trays were either i) sprayed with 1-MCP (1-40 g ai/ha) or ii) left untreated. Contacting the plants was achieved using pressurized backpack sprayer. Two days later, the seedlings were transplanted into the open field near Thonotosassa, Fla. following normal commercial tomato production practices.
Throughout the growing season, normal field production practices were performed, including fertilization, watering, and pest control (e.g., insecticide, fungicide, and herbicide) applications uniformly to the entire trial area. Approximately 3 weeks later, when the tomatoes had grown to approximately 1½ feet tall an infestation of Bacterial Spot was observed. In each plot of plants that were treated with 1-MCP, and the corresponding plot of plants that were untreated, disease severity assessments were made.

Test [5] deals with Early Blight (Alternaria tomatophila). Kind of test: Evaluation of Early Blight on tomatoes (field trial). The format is in vivo. As for the experimental part:
In the instant example, symptoms of fungal infection with Early Blight (Alternaria tomatophila) on tomatoes were evaluated. Plants were either treated with a composition comprising 1-MCP or left untreated.
Tomato seedlings (var Charger) with approximately 4 leaves (approximately 4-5 inches tall) in seedling trays were either i) sprayed with 1-MCP (1-10 g ai/ha) or ii) left untreated. Contacting the plants was achieved using pressurized backpack sprayer. Two days later, the seedlings were transplanted into the open field near Thonotosassa, Fla. following normal commercial tomato production practices.
Throughout the growing season, normal field production practices were performed, including fertilization, watering, and pest control (e.g., insecticide, fungicide, and herbicide) applications uniformly to the entire trial area. Beginning approximately 3 weeks later, and continuing approximately 7 weeks later and approximately 11 weeks later, the percent disease severity ratings were made in each plot of plants that were treated with 1-MCP and the corresponding plot of plants that were untreated.

The next test relates to Root Rot (Pythium sp.). Kind of test: Evaluation of Root Rot on peppers (field trial). The format is in vivo. The method, then: In the instant example, symptoms of fungal infection with Root Rot (Pythium sp.) on peppers were evaluated. Plants were either treated with a composition comprising 1-MCP or left untreated.
Pepper seedlings with approximately 3 leaves (approximately 4-5 inches tall) in seedling trays were either i) sprayed with 1-MCP (1-10 g ai/ha) or ii) left untreated. Contacting the plants was achieved using a watering can containing a 50 ppm solution of 1-MCP. Three days later, the seedlings were transplanted into the open field near Clinton, N.C. following normal commercial pepper production practices.
Throughout the growing season, normal field production practices were performed, including fertilization, watering, and pest control (e.g., insecticide, fungicide, and herbicide) applications uniformly to the entire trial area.

In test [6] the test system is Downy Mildew (Pseudoperonospora cubensis). Kind of test: Evaluation of Downy Mildew on cucumbers (field trial). The format is in vivo. The method, then: In the instant example, symptoms of fungal infection with Downy Mildew (Pseudoperonospora cubensis) on cucumbers were evaluated. Plants were either treated with a composition comprising 1-MCP or left untreated.
Cucumber seedlings with approximately 3 leaves (approximately 3 inches tall) in seedling trays were either i) sprayed with 1-MCP (40 g ai/ha) or ii) left untreated. Contacting the plants was achieved using pressurized backpack sprayer. Two days later, the seedlings were transplanted into the open field near Futian Village, Wangsi Township, Dayi County, Sichuan, China, following normal commercial production practices.
Throughout the growing season, normal field production practices were performed, including fertilization, watering, and pest control (e.g., insecticide, fungicide, and herbicide) applications uniformly to the entire trial area. Approximately 5-6 weeks later, the percent disease severity ratings were made in each plot of plants that were treated with 1-MCP and the corresponding plot of plants that were untreated.

On to `CC1=CC1` [1-MCP, 1-methylcyclopropene], for which the “Percentage of BCTV Infested Plants” value in test [1] amounted to 4%. For the same molecule, the “Mean (plants showing symptoms of infection by TYLCV out of 54 plants per plot)” value in test [2] is on record as 11%. Moreover, the “Percentage of Infected Plants (Target Spot)” value in test [3] came to 19%. For the same molecule, the “Bacterial Spot disease severity assessment” value in test [4] is reported as 4%. For the same molecule, the “reduction of average percent disease severity ratings for Early Blight versus untreated” value in test [5] (across the three rating dates (approximately 3, 7, 11 weeks)) was “approximately 30%”. The “average percent disease severity rating for Early Blight” value in test [5] (tomato var Charger, seedlings sprayed with 1-10 g ai/ha two days before transplant, average across approximately 3, 7 and 11 weeks later, p = 0.09) came to 27.6%. The “mortality and stunting of plants caused by Pythium” value in the test with Root Rot (Pythium sp.) (pepper seedlings treated with 1-10 g ai/ha (watering can, 50 ppm solution) three days before transplant, versus untreated) was “clearly reduced the mortality and stunting of plants”. For the same molecule, the “plant appearance and Pythium pressure compared to untreated controls” value with Root Rot (Pythium sp.) (pepper, two weeks after transplantation) was “slightly larger, darker green, and not as affected by Pythium pressure”. For the same molecule, in test [6] (cucumber seedlings sprayed with 40 g ai/ha two days before transplant, rated approximately 5-6 weeks later, p = 0.08), the “percent disease (Downy Mildew) severity rating” value came out at 18%. Further, the “reduction of percent disease (Downy Mildew) severity ratings versus untreated” value in test [6] (cucumber, approximately 5-6 weeks later) is listed as “approximately 47%”.
